In the kinase profiling compilation of Christmann-Franck et al. (2016):
Where “and” joins values, the source holds several entries; their conditions need not be identical. Identical values can stand only once.

Assays:
Experiment in all cases: radiometric filter-binding kinase assay, Kinase HotSpot
Conditions in all cases: compound 0.5 µM; ATP 10 µM
MAP3K7 TAB1 (human) = MAP3K7 TAB1 (human) (UniProt O43318+Q15750)
STK38 (human) = STK38 (human) (UniProt Q15208)
DCLK2 (human) = DCLK2 (human) (UniProt Q8N568)
MAPK3 (human) = MAPK3 (human) (UniProt P27361)
SRC (human) = SRC (human) (UniProt P12931)
MINK1 (human) = MINK1 (human) (UniProt Q8N4C8)
GRK5 (human) = GRK5 (human) (UniProt P34947)
PNCK (human) = PNCK (human) (UniProt Q6P2M8)
STK33 (human) = STK33 (human) (UniProt Q9BYT3)
MYLK (human) = MYLK (human) (UniProt Q15746)
ROCK2 (human) = ROCK2 (human) (UniProt O75116)
MAP3K5 (human) = MAP3K5 (human) (UniProt Q99683)
EPHB3 (human) = EPHB3 (human) (UniProt P54753)
LCK (human) = LCK (human) (UniProt P06239)
CAMK2G (human) = CAMK2G (human) (UniProt Q13555)
STK16 (human) = STK16 (human) (UniProt O75716)
MAPK8 (human) = MAPK8 (human) (UniProt P45983)
STK17A (human) = STK17A (human) (UniProt Q9UEE5)
CDK4 CCND3 (human) = CDK4 CCND3 (human) (UniProt P30281+P11802)
IRAK1 (human) = IRAK1 (human) (UniProt P51617)
MAP2K1 (human) = MAP2K1 (human) (UniProt Q02750)
CDK5 CDK5R1 p35 (human) = CDK5 CDK5R1 p35 (human) (UniProt Q00535+Q15078)
CAMK1 (human) = CAMK1 (human) (UniProt Q14012)
CAMK2B (human) = CAMK2B (human) (UniProt Q13554)
CAMK2D (human) = CAMK2D (human) (UniProt Q13557)
MAP3K11 (human) = MAP3K11 (human) (UniProt Q16584)
STK3 (human) = STK3 (human) (UniProt Q13188)
STK10 (human) = STK10 (human) (UniProt O94804)
CDK6 CCND3 (human) = CDK6 CCND3 (human) (UniProt P30281+Q00534)
MAPKAPK3 (human) = MAPKAPK3 (human) (UniProt Q16644)
TGFBR2 (human) = TGFBR2 (human) (UniProt P37173)
PASK (human) = PASK (human) (UniProt Q96RG2)
PRKG1 (human) = PRKG1 (human) (UniProt Q13976)
STK25 (human) = STK25 (human) (UniProt O00506)
MAP4K4 (human) = MAP4K4 (human) (UniProt O95819)
NEK6 (human) = NEK6 (human) (UniProt Q9HC98)
CLK1 (human) = CLK1 (human) (UniProt P49759)
NEK9 (human) = NEK9 (human) (UniProt Q8TD19)
CAMK2A (human) = CAMK2A (human) (UniProt Q9UQM7)
JAK3 JH1 JH2 (human) = JAK3 JH1 JH2 (human) (UniProt P52333)
FGR (human) = FGR (human) (UniProt P09769)
CAMK4 (human) = CAMK4 (human) (UniProt Q16566)

NEK6 (human), sequence (Q9HC98 whole entry, looked up): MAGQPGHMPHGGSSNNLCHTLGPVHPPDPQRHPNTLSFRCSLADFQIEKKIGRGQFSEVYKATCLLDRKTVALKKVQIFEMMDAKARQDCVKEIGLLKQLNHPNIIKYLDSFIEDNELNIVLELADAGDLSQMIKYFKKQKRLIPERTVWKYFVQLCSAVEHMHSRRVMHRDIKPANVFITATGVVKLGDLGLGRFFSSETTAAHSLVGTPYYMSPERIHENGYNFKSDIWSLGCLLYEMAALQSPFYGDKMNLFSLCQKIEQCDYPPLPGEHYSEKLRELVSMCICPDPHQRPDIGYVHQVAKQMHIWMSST
MAP3K7 TAB1 (human), sequence (O43318 whole entry, looked up): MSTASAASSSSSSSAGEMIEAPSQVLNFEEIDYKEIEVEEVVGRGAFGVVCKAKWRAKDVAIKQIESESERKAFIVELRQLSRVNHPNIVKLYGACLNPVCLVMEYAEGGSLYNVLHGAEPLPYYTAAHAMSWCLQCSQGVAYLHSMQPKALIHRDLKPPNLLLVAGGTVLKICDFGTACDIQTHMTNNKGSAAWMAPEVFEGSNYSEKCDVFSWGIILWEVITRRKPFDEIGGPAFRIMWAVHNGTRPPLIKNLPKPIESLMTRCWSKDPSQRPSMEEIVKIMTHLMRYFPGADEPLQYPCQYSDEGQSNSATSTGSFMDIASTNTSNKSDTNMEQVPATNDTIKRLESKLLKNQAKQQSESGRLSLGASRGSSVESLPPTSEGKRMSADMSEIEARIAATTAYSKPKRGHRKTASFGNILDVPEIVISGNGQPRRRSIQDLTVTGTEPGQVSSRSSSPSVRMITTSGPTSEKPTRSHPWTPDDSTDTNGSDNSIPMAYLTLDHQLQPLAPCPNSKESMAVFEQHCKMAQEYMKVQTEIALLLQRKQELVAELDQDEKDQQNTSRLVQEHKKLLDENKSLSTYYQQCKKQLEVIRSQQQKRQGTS
MAP3K7 TAB1 (human), sequence (Q15750 whole entry, looked up): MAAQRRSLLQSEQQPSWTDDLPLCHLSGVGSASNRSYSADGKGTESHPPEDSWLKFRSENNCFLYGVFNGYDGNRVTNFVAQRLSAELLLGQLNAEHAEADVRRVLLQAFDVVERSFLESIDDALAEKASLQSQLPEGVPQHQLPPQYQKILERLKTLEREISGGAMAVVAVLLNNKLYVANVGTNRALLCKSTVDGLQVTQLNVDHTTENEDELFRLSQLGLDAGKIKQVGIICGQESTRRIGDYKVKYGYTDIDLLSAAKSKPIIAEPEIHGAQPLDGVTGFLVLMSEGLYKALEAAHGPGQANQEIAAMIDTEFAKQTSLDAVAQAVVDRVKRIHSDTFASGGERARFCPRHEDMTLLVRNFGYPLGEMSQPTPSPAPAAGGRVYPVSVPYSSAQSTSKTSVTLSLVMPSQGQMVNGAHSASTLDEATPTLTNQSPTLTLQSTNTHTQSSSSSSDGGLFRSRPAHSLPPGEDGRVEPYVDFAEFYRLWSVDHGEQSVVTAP
DCLK2 (human), sequence (Q8N568 whole entry, looked up): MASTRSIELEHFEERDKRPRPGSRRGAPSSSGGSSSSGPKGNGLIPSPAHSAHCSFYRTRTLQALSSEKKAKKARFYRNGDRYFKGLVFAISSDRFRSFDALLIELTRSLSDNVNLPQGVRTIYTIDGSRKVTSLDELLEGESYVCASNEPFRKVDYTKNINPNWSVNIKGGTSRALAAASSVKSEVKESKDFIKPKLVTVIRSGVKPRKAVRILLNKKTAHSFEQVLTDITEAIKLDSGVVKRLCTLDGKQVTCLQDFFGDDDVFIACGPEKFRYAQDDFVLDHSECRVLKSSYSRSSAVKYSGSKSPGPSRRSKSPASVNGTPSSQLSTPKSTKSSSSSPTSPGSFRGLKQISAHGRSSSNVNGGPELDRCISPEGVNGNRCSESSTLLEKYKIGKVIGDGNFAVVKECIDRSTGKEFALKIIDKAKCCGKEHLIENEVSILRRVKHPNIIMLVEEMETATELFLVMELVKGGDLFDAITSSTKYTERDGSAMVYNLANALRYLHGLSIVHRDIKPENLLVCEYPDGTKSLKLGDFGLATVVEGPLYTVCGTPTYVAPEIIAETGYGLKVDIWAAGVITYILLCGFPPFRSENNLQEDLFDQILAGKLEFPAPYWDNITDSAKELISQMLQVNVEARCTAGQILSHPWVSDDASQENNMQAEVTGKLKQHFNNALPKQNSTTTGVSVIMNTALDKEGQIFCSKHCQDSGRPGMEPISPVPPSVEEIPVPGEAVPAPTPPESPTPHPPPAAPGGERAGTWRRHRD
MAPK3 (human), sequence (P27361 whole entry, looked up): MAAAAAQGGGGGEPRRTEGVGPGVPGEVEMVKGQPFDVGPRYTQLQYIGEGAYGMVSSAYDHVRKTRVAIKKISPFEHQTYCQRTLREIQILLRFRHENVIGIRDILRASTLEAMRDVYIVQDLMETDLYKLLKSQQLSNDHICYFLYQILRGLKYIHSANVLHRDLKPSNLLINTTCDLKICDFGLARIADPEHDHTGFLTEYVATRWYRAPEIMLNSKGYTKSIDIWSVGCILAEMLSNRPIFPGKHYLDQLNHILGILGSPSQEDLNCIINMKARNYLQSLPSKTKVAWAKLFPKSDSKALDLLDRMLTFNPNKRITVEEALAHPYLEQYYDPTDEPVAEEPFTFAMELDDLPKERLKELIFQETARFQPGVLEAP
MAP2K1 (human), sequence (Q02750 whole entry, looked up): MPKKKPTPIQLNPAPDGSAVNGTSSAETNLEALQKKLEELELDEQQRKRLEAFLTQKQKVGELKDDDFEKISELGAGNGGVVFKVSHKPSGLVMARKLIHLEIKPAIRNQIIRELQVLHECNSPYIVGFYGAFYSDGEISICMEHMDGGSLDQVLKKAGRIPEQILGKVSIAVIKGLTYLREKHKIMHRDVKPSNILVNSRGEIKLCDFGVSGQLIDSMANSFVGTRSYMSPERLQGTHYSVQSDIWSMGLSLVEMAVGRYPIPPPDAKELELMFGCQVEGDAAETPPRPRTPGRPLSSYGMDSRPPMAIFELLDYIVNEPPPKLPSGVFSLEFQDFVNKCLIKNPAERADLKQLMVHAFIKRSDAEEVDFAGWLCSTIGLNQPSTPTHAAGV
STK10 (human), sequence (O94804 whole entry, looked up): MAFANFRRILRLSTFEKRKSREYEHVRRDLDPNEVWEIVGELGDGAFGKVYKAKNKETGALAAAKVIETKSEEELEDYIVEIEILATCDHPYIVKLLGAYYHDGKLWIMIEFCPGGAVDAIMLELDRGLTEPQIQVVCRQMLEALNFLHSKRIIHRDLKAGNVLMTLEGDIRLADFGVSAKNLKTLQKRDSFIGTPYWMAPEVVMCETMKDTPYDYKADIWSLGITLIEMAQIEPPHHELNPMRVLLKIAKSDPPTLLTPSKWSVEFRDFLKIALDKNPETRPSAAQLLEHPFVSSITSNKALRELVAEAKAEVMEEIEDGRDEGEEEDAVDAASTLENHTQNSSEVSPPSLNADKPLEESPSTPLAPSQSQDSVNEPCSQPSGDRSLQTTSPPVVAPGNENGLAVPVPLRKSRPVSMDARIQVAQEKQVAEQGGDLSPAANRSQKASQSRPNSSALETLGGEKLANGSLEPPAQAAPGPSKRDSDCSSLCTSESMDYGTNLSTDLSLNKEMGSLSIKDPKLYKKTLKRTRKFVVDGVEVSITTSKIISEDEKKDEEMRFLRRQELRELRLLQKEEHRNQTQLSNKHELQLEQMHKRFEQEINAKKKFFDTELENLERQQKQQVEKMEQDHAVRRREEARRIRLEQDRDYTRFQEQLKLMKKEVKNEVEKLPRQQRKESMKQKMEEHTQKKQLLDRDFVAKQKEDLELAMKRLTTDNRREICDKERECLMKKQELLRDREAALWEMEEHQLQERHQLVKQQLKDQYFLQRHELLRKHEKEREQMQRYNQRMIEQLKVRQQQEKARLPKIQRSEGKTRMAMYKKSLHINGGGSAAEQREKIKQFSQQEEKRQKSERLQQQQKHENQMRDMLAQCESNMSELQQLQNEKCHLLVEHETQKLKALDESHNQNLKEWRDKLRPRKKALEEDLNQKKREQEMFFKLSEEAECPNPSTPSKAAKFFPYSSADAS
STK33 (human), sequence (Q9BYT3 whole entry, looked up): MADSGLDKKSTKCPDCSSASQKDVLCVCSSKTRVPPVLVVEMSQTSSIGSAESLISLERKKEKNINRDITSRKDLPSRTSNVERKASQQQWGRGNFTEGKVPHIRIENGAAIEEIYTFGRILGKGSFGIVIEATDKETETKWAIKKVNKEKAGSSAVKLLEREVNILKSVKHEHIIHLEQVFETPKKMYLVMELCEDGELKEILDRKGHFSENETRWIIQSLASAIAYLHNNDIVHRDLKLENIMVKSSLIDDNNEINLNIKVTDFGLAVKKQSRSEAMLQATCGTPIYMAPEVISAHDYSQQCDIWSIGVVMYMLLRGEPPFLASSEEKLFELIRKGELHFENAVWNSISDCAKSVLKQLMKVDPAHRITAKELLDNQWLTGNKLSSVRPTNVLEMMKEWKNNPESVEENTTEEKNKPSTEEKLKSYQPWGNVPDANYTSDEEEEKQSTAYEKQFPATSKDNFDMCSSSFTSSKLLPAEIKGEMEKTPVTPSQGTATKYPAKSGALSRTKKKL
STK38 (human), sequence (Q15208 whole entry, looked up): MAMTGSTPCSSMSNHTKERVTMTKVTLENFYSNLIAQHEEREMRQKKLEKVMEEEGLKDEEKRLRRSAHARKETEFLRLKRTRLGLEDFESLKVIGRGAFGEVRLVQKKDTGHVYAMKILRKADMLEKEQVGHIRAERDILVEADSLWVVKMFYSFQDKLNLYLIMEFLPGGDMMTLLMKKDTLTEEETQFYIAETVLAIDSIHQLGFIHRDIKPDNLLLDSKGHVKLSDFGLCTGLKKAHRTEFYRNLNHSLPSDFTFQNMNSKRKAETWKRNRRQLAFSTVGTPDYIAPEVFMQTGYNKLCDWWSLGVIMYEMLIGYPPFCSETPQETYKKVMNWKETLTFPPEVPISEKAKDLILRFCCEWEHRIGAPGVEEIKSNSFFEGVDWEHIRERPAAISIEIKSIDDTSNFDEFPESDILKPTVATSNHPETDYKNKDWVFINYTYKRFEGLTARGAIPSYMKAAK

Work on `O=C1NC(=O)/C(=C/c2ccc3c(c2)OC(F)(F)O3)S1` yielded a residual activity (MAP3K7 TAB1 (human)) of 95.3%, a residual activity (STK38 (human)) of 107% and a residual activity (DCLK2 (human)) of 99.7%. It also gave a residual activity (MAPK3 (human)) of 91.6%, a residual activity (SRC (human)) of 98.4% and a residual activity (MINK1 (human)) of 90.1%. It also gave a residual activity (GRK5 (human)) of 105%, a residual activity (PNCK (human)) of 96% and a residual activity (STK33 (human)) of 90.8%. The residual activity (MYLK (human)) was 99.4%, the residual activity (ROCK2 (human)) was 92.4% and the residual activity (MAP3K5 (human)) was 105%. The residual activity (EPHB3 (human)) was 93.1%, the residual activity (LCK (human)) was 98.3% and the residual activity (CAMK2G (human)) was 102%. It also gave a residual activity (STK16 (human)) of 91%, a residual activity (MAPK8 (human)) of 95.1% and a residual activity (STK17A (human)) of 90.4%. For the same compound, the residual activity (CDK4 CCND3 (human)) was 98.2%, the residual activity (IRAK1 (human)) was 84.2% and the residual activity (MAP2K1 (human)) was 95.6%. The residual activity (CDK5 CDK5R1 p35 (human)) was 103%, the residual activity (CAMK1 (human)) was 89.9% and the residual activity (CAMK2B (human)) was 99.8%. The residual activity (CAMK2D (human)) was 97.1%, the residual activity (MAP3K11 (human)) was 97.8% and the residual activity (STK3 (human)) was 100%. The residual activity (STK10 (human)) was 98.6%, the residual activity (CDK6 CCND3 (human)) was 92.6% and the residual activity (MAPKAPK3 (human)) was 94.2%. The residual activity (TGFBR2 (human)) was 107%, the residual activity (PASK (human)) was 78.2% and the residual activity (PRKG1 (human)) was 109% and 95.6%. It also gave a residual activity (STK25 (human)) of 95.7%, a residual activity (MAP4K4 (human)) of 95.3% and a residual activity (NEK6 (human)) of 113%. The residual activity (CLK1 (human)) was 102%, the residual activity (NEK9 (human)) was 109% and the residual activity (CAMK2A (human)) was 96.8%. For the same compound, the residual activity (JAK3 JH1 JH2 (human)) was 98.6%, the residual activity (FGR (human)) was 95.8% and the residual activity (CAMK4 (human)) was 101%.

`CCCC(=O)Oc1ccc2[nH]c(C(=O)c3cc4ccccc4[nH]3)cc2c1` gave a residual activity (MAP3K7 TAB1 (human)) of 92.1%, a residual activity (STK38 (human)) of 96.9% and a residual activity (DCLK2 (human)) of 89.2%. It also gave a residual activity (MAPK3 (human)) of 87.9%, a residual activity (SRC (human)) of 97% and a residual activity (MINK1 (human)) of 93.8%. It also gave a residual activity (GRK5 (human)) of 100%, a residual activity (PNCK (human)) of 99.4% and a residual activity (STK33 (human)) of 92.9%. It also gave a residual activity (MYLK (human)) of 102%, a residual activity (ROCK2 (human)) of 103% and a residual activity (MAP3K5 (human)) of 103%. For the same compound, the residual activity (EPHB3 (human)) was 94.2%, the residual activity (LCK (human)) was 94% and the residual activity (CAMK2G (human)) was 99.4%. It also gave a residual activity (STK16 (human)) of 100%, a residual activity (MAPK8 (human)) of 84% and a residual activity (STK17A (human)) of 90.9%. For the same compound, the residual activity (CDK4 CCND3 (human)) was 103%, the residual activity (IRAK1 (human)) was 90.5% and the residual activity (MAP2K1 (human)) was 99.9%. The residual activity (CDK5 CDK5R1 p35 (human)) was 97.5%, the residual activity (CAMK1 (human)) was 98.8% and the residual activity (CAMK2B (human)) was 90%. It also gave a residual activity (CAMK2D (human)) of 111%, a residual activity (MAP3K11 (human)) of 98.7% and a residual activity (STK3 (human)) of 87%. The residual activity (STK10 (human)) was 94.3%, the residual activity (CDK6 CCND3 (human)) was 92.5% and the residual activity (MAPKAPK3 (human)) was 94.3%. For the same compound, the residual activity (TGFBR2 (human)) was 101%, the residual activity (PASK (human)) was 88.7% and the residual activity (PRKG1 (human)) was 104% and 95.1%. For the same compound, the residual activity (STK25 (human)) was 94.5%, the residual activity (MAP4K4 (human)) was 97.3% and the residual activity (NEK6 (human)) was 101%. It also gave a residual activity (CLK1 (human)) of 99.3%, a residual activity (NEK9 (human)) of 110% and a residual activity (CAMK2A (human)) of 87%. It also gave a residual activity (JAK3 JH1 JH2 (human)) of 95.6%, a residual activity (FGR (human)) of 88.4% and a residual activity (CAMK4 (human)) of 111%.

With `CO[C@H]1CC2CC[C@@H](C)[C@@](O)(O2)C(=O)C(=O)N2CCCC[C@H]2C(=O)OC([C@H](C)C[C@@H]2CC[C@@H](O)[C@H](OC)C2)CC(=O)[C@H](C)/C=C(\C)[C@@H](O)[C@@H](OC)C(=O)[C@H](C)C[C@H](C)/C=C/C=C/C=C/1C` (stereo partly drawn) the residual activity (MAP3K7 TAB1 (human)) was 95.2%, the residual activity (STK38 (human)) was 92.8% and the residual activity (DCLK2 (human)) was 99.2%. The residual activity (MAPK3 (human)) was 104%, the residual activity (SRC (human)) was 96% and the residual activity (MINK1 (human)) was 100%. The residual activity (GRK5 (human)) was 98.7%, the residual activity (PNCK (human)) was 95.4% and the residual activity (STK33 (human)) was 105%. The residual activity (MYLK (human)) was 102%, the residual activity (ROCK2 (human)) was 108% and the residual activity (MAP3K5 (human)) was 107%. For the same compound, the residual activity (EPHB3 (human)) was 103%, the residual activity (LCK (human)) was 99.4% and the residual activity (CAMK2G (human)) was 101%. The residual activity (STK16 (human)) was 112%, the residual activity (MAPK8 (human)) was 100% and the residual activity (STK17A (human)) was 95.9%. It also gave a residual activity (CDK4 CCND3 (human)) of 104%, a residual activity (IRAK1 (human)) of 118% and a residual activity (MAP2K1 (human)) of 92.1%. The residual activity (CDK5 CDK5R1 p35 (human)) was 99.5%, the residual activity (CAMK1 (human)) was 111% and the residual activity (CAMK2B (human)) was 99.2%. It also gave a residual activity (CAMK2D (human)) of 96.1%, a residual activity (MAP3K11 (human)) of 98.5% and a residual activity (STK3 (human)) of 105%. The residual activity (STK10 (human)) was 97.7%, the residual activity (CDK6 CCND3 (human)) was 105% and the residual activity (MAPKAPK3 (human)) was 90.9%. The residual activity (TGFBR2 (human)) was 136%, the residual activity (PASK (human)) was 101% and the residual activity (PRKG1 (human)) was 91%. For the same compound, the residual activity (STK25 (human)) was 129%, the residual activity (MAP4K4 (human)) was 87.7% and the residual activity (NEK6 (human)) was 97.7%. For the same compound, the residual activity (CLK1 (human)) was 107%, the residual activity (NEK9 (human)) was 98.2% and the residual activity (CAMK2A (human)) was 105%. It also gave a residual activity (JAK3 JH1 JH2 (human)) of 92.4%, a residual activity (FGR (human)) of 94.5% and a residual activity (CAMK4 (human)) of 99.1%.

For `O=C1Nc2ccc(Cl)cc2/C1=C/c1cc(Cl)c(O)c(Cl)c1`, the residual activity (MAP3K7 TAB1 (human)) was 86.8%, the residual activity (STK38 (human)) was 85.4% and the residual activity (DCLK2 (human)) was 98%. It also gave a residual activity (MAPK3 (human)) of 88.2%, a residual activity (SRC (human)) of 96.2% and a residual activity (MINK1 (human)) of 22.4%. It also gave a residual activity (GRK5 (human)) of 95.8%, a residual activity (PNCK (human)) of 94.2% and a residual activity (STK33 (human)) of 85.1%. The residual activity (MYLK (human)) was 62.3%, the residual activity (ROCK2 (human)) was 90.6% and the residual activity (MAP3K5 (human)) was 106%. The residual activity (EPHB3 (human)) was 91%, the residual activity (LCK (human)) was 88.2% and the residual activity (CAMK2G (human)) was 119%. It also gave a residual activity (STK16 (human)) of 90.2%, a residual activity (MAPK8 (human)) of 82.8% and a residual activity (STK17A (human)) of 78.9%. It also gave a residual activity (CDK4 CCND3 (human)) of 94.8%, a residual activity (IRAK1 (human)) of 95.4% and a residual activity (MAP2K1 (human)) of 96.8%. It also gave a residual activity (CDK5 CDK5R1 p35 (human)) of 94.5%, a residual activity (CAMK1 (human)) of 94.9% and a residual activity (CAMK2B (human)) of 92%. For the same compound, the residual activity (CAMK2D (human)) was 80.2%, the residual activity (MAP3K11 (human)) was 60.4% and the residual activity (STK3 (human)) was 31.6%. It also gave a residual activity (STK10 (human)) of 77.1%, a residual activity (CDK6 CCND3 (human)) of 94.1% and a residual activity (MAPKAPK3 (human)) of 88.4%. For the same compound, the residual activity (TGFBR2 (human)) was 94.9%, the residual activity (PASK (human)) was 70% and the residual activity (PRKG1 (human)) was 102% and 96.8%. It also gave a residual activity (STK25 (human)) of 94%, a residual activity (MAP4K4 (human)) of 4.48% and a residual activity (NEK6 (human)) of 104%. It also gave a residual activity (CLK1 (human)) of 85%, a residual activity (NEK9 (human)) of 103% and a residual activity (CAMK2A (human)) of 92.9%. The residual activity (JAK3 JH1 JH2 (human)) was 100%, the residual activity (FGR (human)) was 84.8% and the residual activity (CAMK4 (human)) was 96.8%.
